Assay results: patent publication US20260193293A1, “PEPTIDES CAPABLE OF INHIBITING PROTEIN-PROTEIN INTERACTIONS AT GABAB1A SUBUNIT AND USES THEREOF” (UNIVERSITY OF COPENHAGEN, priority 2022, published 2026)
Like-named read-outs stand apart in the source and are kept apart here. Each block holds one compound with its values, some of them ahead of it. Non-standard residues stand in square brackets, D forms with d. Residues, ends and D or L forms follow the SMILES beside them. NMeW = CN[C@@H](Cc1c[nH]c2ccccc12)C(=O)O; Phe(4-NH2) = Nc1ccc(C[C@H](N)C(=O)O)cc1; NMeD = CN[C@@H](CC(=O)O)C(=O)O

Target: Sushi domains (SD1/2) protein
Assay: Fluorescence polarization (FP) competition assay with AJAP-1probe, calculated Ki
Type: binding
Details: read-out: Ki (nM) mean ± SEM
How it was run: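 Ki values were derived from IC50s (sigmoidal fits, ≥ triplicate), with probe Kd obtained by saturation titration of SD1/2. Peptides displaced a 25 nM TAMRA-labelled probe; polarization read at 530/580 nm in 1% BSA-containing PBS, pH 7.4, room temperature.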

[1] = Table 9, Ala-, D-amino acids and N-methylation scans of PIANPWT
[2] = Table 11, deep mutational scanning validation variants of AJAP-1WT

Compound: CC(=O)N1CCC[C@H]1C(=O)N[C@@H](Cc1c[nH]c2ccccc12)C(=O)N[C@@H](C)C(=O)N[C@@H](C)C(=O)N[C@H](C(=O)N[C@@H](Cc1c[nH]c2ccccc12)C(=O)NCC(=O)N1CCC[C@H]1C(=O)N[C@H](C(=O)N[C@H](C(=O)N[C@@H](CO)C(=O)N[C@@H](CCCNC(=N)N)C(=O)N[C@@H](CCC(=O)O)C(=O)N[C@@H](CC(=O)O)C(N)=O)C(C)C)[C@@H](C)O)C(C)C [PWAAVWGPTVSRED] (Ac-PWAAVWGPTVSRED-NH2)
Ki [1]: 46600 ± 4840 nM

Compound: CC[C@H](C)[C@H](NC(=O)[C@H](C)NC(=O)[C@H](Cc1c[nH]c2ccccc12)NC(=O)[C@@H]1CCCN1C(C)=O)C(=O)N[C@H](C(=O)N[C@@H](Cc1c[nH]c2ccccc12)C(=O)NCC(=O)N1CCC[C@H]1C(=O)N[C@H](C(=O)N[C@H](C(=O)N[C@@H](CO)C(=O)N[C@@H](CCCNC(=N)N)C(=O)N[C@@H](CCC(=O)O)C(=O)N(C)[C@@H](CC(=O)O)C(N)=O)C(C)C)[C@@H](C)O)C(C)C (Ac-PWAIVWGPTVSRE[NMeD]-NH2)
Ki [1]: 434 ± 10 nM

Compound: CC[C@H](C)[C@H](NC(=O)[C@H](Cc1ccccc1)NC(=O)[C@H](CCC(=O)O)NC(=O)[C@@H](NC(=O)[C@H](CCC(=O)O)NC(C)=O)[C@@H](C)O)C(=O)N[C@@H](C)C(=O)N[C@@H](Cc1c[nH]c2ccccc12)C(=O)N[C@@H](Cc1ccc(O)cc1)C(=O)N1CCC[C@H]1C(=O)N[C@@H](C)C(=O)N[C@@H](CC(=O)O)C(=O)N[C@H](C(=O)N[C@@H](CC(=O)O)C(N)=O)[C@@H](C)O (Ac-ETEFIAWYPADTD-NH2)
Ki (Table 13, peptides for affinity maturation): 190 ± 3 nM

Compound: CC(=O)N[C@@H](CCC(=O)O)C(=O)N[C@@H](CC(=O)O)C(=O)N[C@@H](CC(=O)O)C(=O)N[C@@H](CO)C(=O)N[C@@H](CC(=O)O)C(=O)N[C@H](C(=O)N[C@@H](Cc1c[nH]c2ccccc12)C(=O)N[C@@H](Cc1c[nH]c2ccccc12)C(=O)NCC(=O)NCC(=O)N[C@@H](C)C(=O)N[C@@H](CC(=O)O)C(=O)N[C@H](C(=O)N[C@@H](C)C(N)=O)[C@@H](C)O)C(C)C (Ac-EDDSDVWWGGADTA-NH2)
Ki (Table 7, Ala-, D-amino acids and N-methylation scans of APPWT): 786 ± 29 nM

Compound: CC[C@H](C)[C@H](NC(=O)[C@H](Cc1ccccc1)NC(=O)[C@H](CCC(=O)O)NC(=O)[C@@H](NC(C)=O)[C@@H](C)O)C(=O)N[C@@H](C)C(=O)N[C@@H](Cc1c[nH]c2ccccc12)C(=O)NCC(=O)N1CCC[C@H]1C(=O)N[C@H](C(=O)NCC(=O)N[C@@H](CC(=O)O)C(=O)N[C@@H](CCC(=O)O)C(=O)N[C@@H](CC(=O)O)C(N)=O)[C@@H](C)O [TEFIAWGPTGDED] (Ac-TEFIAWGPTGDED-NH2)
Ki (Table 5, elongation and truncation scan of AJAP-1 binding epitope): 102 ± 4 nM

Second part, the compound after the results:

Ki (Table 16, ncAAs incorporated peptides): 184 ± 3 nM
Compound: EDDS(Aphe)VWWGGADTD (Ac-EDDS[Phe(4-NH2)]VWWGGADTD-NH2)

Ki (Table 8, Ala-, D-amino acids and N-methylation scans of AJAP-1WT): 46 ± 2 nM
Compound: CC[C@H](C)[C@H](NC(=O)[C@H](Cc1ccccc1)NC(=O)[C@H](CCC(=O)O)NC(=O)[C@@H](NC(=O)[C@H](CCC(=O)O)NC(C)=O)[C@@H](C)O)C(=O)N[C@@H](C)C(=O)N(C)[C@@H](Cc1c[nH]c2ccccc12)C(=O)NCC(=O)N1CCC[C@H]1C(=O)N[C@H](C(=O)NCC(=O)N[C@@H](CC(=O)O)C(=O)N[C@@H](CCC(=O)O)C(=O)N[C@@H](CC(=O)O)C(N)=O)[C@@H](C)O [ETEFIA(N-Me-W)GPTGDED] (Ac-ETEFIA[NMeW]GPTGDED-NH2)

Ki [2]: 87 ± 3 nM
Compound: CC[C@H](C)[C@H](NC(=O)[C@H](Cc1ccccc1)NC(=O)[C@H](CCC(=O)O)NC(=O)[C@@H](NC(=O)[C@H](CCCNC(=N)N)NC(C)=O)[C@@H](C)O)C(=O)N[C@@H](C)C(=O)N[C@@H](Cc1c[nH]c2ccccc12)C(=O)NCC(=O)N1CCC[C@H]1C(=O)N[C@H](C(=O)NCC(=O)N[C@@H](CC(=O)O)C(=O)N[C@@H](CCC(=O)O)C(=O)N[C@@H](CC(=O)O)C(N)=O)[C@@H](C)O [RTEFIAWGPTGDED] (Ac-RTEFIAWGPTGDED-NH2)

Ki [2]: 54 ± 2 nM
Compound: CC[C@H](C)[C@H](NC(=O)[C@H](Cc1ccccc1)NC(=O)[C@H](CCC(=O)O)NC(=O)[C@@H](NC(=O)[C@H](CCC(=O)O)NC(C)=O)[C@@H](C)O)C(=O)N[C@@H](C)C(=O)N[C@@H](Cc1c[nH]c2ccccc12)C(=O)NCC(=O)N1CCC[C@H]1C(=O)N[C@H](C(=O)NCC(=O)N[C@@H](CC(=O)O)C(=O)N[C@@H](CCC(=O)O)C(=O)N[C@@H](Cc1c[nH]c2ccccc12)C(N)=O)[C@@H](C)O (Ac-ETEFIAWGPTGDEW-NH2)
